Reference: PubChem BioAssay (NCI)
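Results reflect a 48-hour exposure of cells in 96-well plates to compound at five concentrations. GI50: concentration for 50% inhibition of growth. Definition used: TGI = concentration required for complete inhibition of growth.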

Columns and labels:
Test in all cases: NCI tumour cell line growth inhibition, 48 h
T-47D breast = system: T-47D breast
EKVX NSCLC = system: EKVX NSCLC
MDA-MB-435 = system: MDA-MB-435
BT-549 breast = system: BT-549 breast
MCF7 breast = system: MCF7 breast
MDA-MB-231 breast = system: MDA-MB-231 breast
MALME-3M melanoma = system: MALME-3M melanoma
786-0 renal = system: 786-0 renal
RXF 393 renal = system: RXF 393 renal
HCT-116 colon = system: HCT-116 colon
PC-3 prostate = system: PC-3 prostate
SF-295 CNS = system: SF-295 CNS
CAKI-1 renal = system: CAKI-1 renal
UO-31 renal = system: UO-31 renal
HL-60(TB) leukemia = system: HL-60(TB) leukemia
MOLT-4 leukemia = system: MOLT-4 leukemia
IGROV1 ovarian = system: IGROV1 ovarian
SK-OV-3 ovarian = system: SK-OV-3 ovarian
UACC-62 melanoma = system: UACC-62 melanoma
A498 renal = system: A498 renal
SF-539 CNS = system: SF-539 CNS
OVCAR-4 ovarian = system: OVCAR-4 ovarian
COLO 205 colon = system: COLO 205 colon
TK-10 renal = system: TK-10 renal
ACHN renal = system: ACHN renal
HCC-2998 colon = system: HCC-2998 colon
SK-MEL-2 melanoma = system: SK-MEL-2 melanoma
KM12 colon = system: KM12 colon
HT29 colon = system: HT29 colon
HS 578T breast = system: HS 578T breast
SN12C renal = system: SN12C renal
UACC-257 melanoma = system: UACC-257 melanoma
OVCAR-3 ovarian = system: OVCAR-3 ovarian
NCI-H522 lung = system: NCI-H522 lung
CCRF-CEM leukemia = system: CCRF-CEM leukemia
U251 CNS = system: U251 CNS
DU-145 prostate = system: DU-145 prostate
RPMI-8226 leukemia = system: RPMI-8226 leukemia
OVCAR-8 ovarian = system: OVCAR-8 ovarian
SK-MEL-28 melanoma = system: SK-MEL-28 melanoma
OVCAR-5 ovarian = system: OVCAR-5 ovarian
HOP-92 NSCLC = system: HOP-92 NSCLC
NCI/ADR-RES ovarian = system: NCI/ADR-RES ovarian
NCI-H460 lung = system: NCI-H460 lung
NCI-H226 lung = system: NCI-H226 lung
SW-620 colon = system: SW-620 colon
HCT-15 colon = system: HCT-15 colon
A549 NSCLC = system: A549 NSCLC
M14 melanoma = system: M14 melanoma
HOP-62 NSCLC = system: HOP-62 NSCLC
SNB-19 CNS = system: SNB-19 CNS
SK-MEL-5 melanoma = system: SK-MEL-5 melanoma
K-562 leukemia = system: K-562 leukemia
SNB-75 CNS = system: SNB-75 CNS
SF-268 CNS = system: SF-268 CNS

NC(=O)c1cccc(-n2ccc3cc(NC(=O)Nc4ccc(N5CCOCC5)c(C(F)(F)F)c4)ccc32)n1
GI50 (T-47D breast): 463 nM | TGI (T-47D breast): 3020 nM | GI50 (EKVX NSCLC): 2900 nM | TGI (EKVX NSCLC): > 100000 nM | GI50 (MDA-MB-435): 2030 nM | TGI (MDA-MB-435): 7190 nM | GI50 (BT-549 breast): 1790 nM | TGI (BT-549 breast): 5040 nM | GI50 (MCF7 breast): 124 nM | TGI (MCF7 breast): 3160 nM | GI50 (MDA-MB-231 breast): 2560 nM | TGI (MDA-MB-231 breast): 7960 nM | GI50 (MALME-3M melanoma): 1590 nM | TGI (MALME-3M melanoma): 4340 nM | GI50 (786-0 renal): 670 nM | TGI (786-0 renal): 40600 nM | GI50 (RXF 393 renal): 245 nM | TGI (RXF 393 renal): 743 nM | GI50 (HCT-116 colon): 1910 nM | TGI (HCT-116 colon): 8570 nM | GI50 (PC-3 prostate): 1670 nM | TGI (PC-3 prostate): 6200 nM | GI50 (SF-295 CNS): 419 nM | TGI (SF-295 CNS): 2310 nM | GI50 (CAKI-1 renal): 1900 nM | TGI (CAKI-1 renal): 9410 nM | GI50 (UO-31 renal): 1840 nM | TGI (UO-31 renal): 5210 nM | GI50 (HL-60(TB) leukemia): 2050 nM | TGI (HL-60(TB) leukemia): 7500 nM | GI50 (MOLT-4 leukemia): 1650 nM | TGI (MOLT-4 leukemia): 9010 nM | GI50 (IGROV1 ovarian): 2250 nM | TGI (IGROV1 ovarian): 6940 nM | GI50 (SK-OV-3 ovarian): 2730 nM | TGI (SK-OV-3 ovarian): 8950 nM | GI50 (UACC-62 melanoma): 1650 nM | TGI (UACC-62 melanoma): 4140 nM | GI50 (A498 renal): 2010 nM | TGI (A498 renal): 7320 nM | GI50 (SF-539 CNS): 616 nM | TGI (SF-539 CNS): 2790 nM | GI50 (OVCAR-4 ovarian): 2250 nM | TGI (OVCAR-4 ovarian): 7090 nM | GI50 (COLO 205 colon): 2060 nM | TGI (COLO 205 colon): 5510 nM | GI50 (TK-10 renal): 2750 nM | TGI (TK-10 renal): 8290 nM | GI50 (ACHN renal): 2700 nM | TGI (ACHN renal): 8590 nM | GI50 (HCC-2998 colon): 3150 nM | GI50 (SK-MEL-2 melanoma): 2110 nM | TGI (SK-MEL-2 melanoma): 5090 nM | GI50 (KM12 colon): 397 nM | TGI (KM12 colon): 4410 nM | GI50 (HT29 colon): 2340 nM | TGI (HT29 colon): > 100000 nM | GI50 (HS 578T breast): 835 nM | TGI (HS 578T breast): 4830 nM | GI50 (SN12C renal): 2190 nM | TGI (SN12C renal): 7360 nM | GI50 (UACC-257 melanoma): 2900 nM | TGI (UACC-257 melanoma): 9040 nM | GI50 (OVCAR-3 ovarian): 1990 nM | TGI (OVCAR-3 ovarian): 5370 nM | GI50 (NCI-H522 lung): 2070 nM | TGI (NCI-H522 lung): 7820 nM | GI50 (CCRF-CEM leukemia): 741 nM | TGI (CCRF-CEM leukemia): 4740 nM | GI50 (U251 CNS): 1250 nM | TGI (U251 CNS): 12100 nM | GI50 (DU-145 prostate): 3010 nM | TGI (DU-145 prostate): > 100000 nM | GI50 (RPMI-8226 leukemia): 505 nM | TGI (RPMI-8226 leukemia): 2290 nM | GI50 (OVCAR-8 ovarian): 1480 nM | TGI (OVCAR-8 ovarian): 8380 nM | GI50 (SK-MEL-28 melanoma): 2040 nM | TGI (SK-MEL-28 melanoma): 8830 nM | GI50 (OVCAR-5 ovarian): 2950 nM | TGI (OVCAR-5 ovarian): > 100000 nM | GI50 (HOP-92 NSCLC): 2100 nM | TGI (HOP-92 NSCLC): 4820 nM | GI50 (NCI/ADR-RES ovarian): 2650 nM | TGI (NCI/ADR-RES ovarian): 35400 nM | GI50 (NCI-H460 lung): 2220 nM | TGI (NCI-H460 lung): 6510 nM | GI50 (NCI-H226 lung): 1740 nM | TGI (NCI-H226 lung): 6600 nM | GI50 (SW-620 colon): 2870 nM | TGI (SW-620 colon): > 100000 nM | GI50 (HCT-15 colon): 1590 nM | TGI (HCT-15 colon): 6610 nM | GI50 (A549 NSCLC): 2640 nM | TGI (A549 NSCLC): > 100000 nM | GI50 (M14 melanoma): 2250 nM | TGI (M14 melanoma): 6910 nM | GI50 (HOP-62 NSCLC): 1500 nM | TGI (HOP-62 NSCLC): 4100 nM | GI50 (SNB-19 CNS): 1860 nM | TGI (SNB-19 CNS): 6550 nM | GI50 (SK-MEL-5 melanoma): 1510 nM | TGI (SK-MEL-5 melanoma): 3470 nM | GI50 (K-562 leukemia): 946 nM | TGI (K-562 leukemia): > 100000 nM | GI50 (SNB-75 CNS): 690 nM | TGI (SNB-75 CNS): 4010 nM | GI50 (SF-268 CNS): 2670 nM | TGI (SF-268 CNS): 8940 nM
